Where “and” joins values, the source holds several entries; their conditions need not be identical. Equal values may be shown once. Read-outs that look alike come from different tables or passages of the source.
Assays:
[1] = target: T1, Porcine pancreatic phospholipase A2 (Sus scrofa, UniProt P00592); experiment: Phospholipase A2 inhibitory activity, method B (L-α-dipalmitoylphosphatidylcholine substrate); format: biochemical; details: 1,000 ppm, 37°C for 30 minutes, read-out: % inhibition of PLA2 (1,000 ppm)
T1 construct: purchased Boehringer Mannheim·Yamanouchi K.K. 161454·122416
T1 sequence (P00592 23-146): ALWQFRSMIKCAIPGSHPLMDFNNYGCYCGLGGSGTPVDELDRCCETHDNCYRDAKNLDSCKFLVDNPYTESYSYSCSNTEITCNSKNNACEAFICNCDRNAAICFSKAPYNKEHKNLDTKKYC
How it was run: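 Substrate: L-α-dipalmitoylphosphatidylcholine/sodium cholate mixed micelles in 250 mM NaCl, 100 mM Tris-HCl pH 8.0. Enzyme (10 µg/ml stock) incubated with compound in buffer containing CaCl2 and BSA, 30 min at 37 °C. Released free fatty acid measured by ACS-ACOD at 540 nm; % inhibition derived from apparent enzyme concentration read off a standard curve.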

[2] = tested on: increased vascular permeability induced by acetic acid; experiment: Inhibitory activity on increased vascular permeability induced by acetic acid (Rat Whittle method, method D); format: in vivo, SD (Crj: CD) male rats; details: amount of leaked dye
Description: Using SD (Crj: CD) male rats, each test group consisted of from 3 to 5 rats. A test compound was mixed with Tween 80 [polyoxyethylenesorbitan monooleate (manufactured by Nacalai Tesque K.K.)], and distilled water was added thereto to obtain a 2% Tween 80 suspension, or it was dissolved in the form of a salt in water to obtain an aqueous solution. A test compound was orally administered, and one hour later, 0.7% acetic acid was intraperitonially injected to each rat in an amount of 0.05 ml/10 g, and at the same time, 2% brilliant blue was intravenously injected into the tail vein in an amount of 0.05 ml/20 g. Thirty minutes after the injection of brilliant blue, the cervical vertebrae were dislocated under anesthesia by chloroform, and the abdorminal cavity was washed with 10 ml of a physiological saline. The washing solution was subjected to centrifugal separation at 3,000 rpm for 10 minutes, and the amount of the dye in the supernatant was measured at 600 nm absorbance by Microplate ELISA Reader (Model 2550EIA Reader, manufactured by Bio-Rad Laboratories). The inhibition rate of the amount of leaked dye in the group to which a test compound was administered relative to the control group was obtained from the following formula, and the results are shown in Table 9. Inhibition rate (%) = (l -(C)/(D)) x 100 [formula] • C: Amount of leaked dye in the group to which a test compound was administered. • D: Amount of leaked dye in the control group.

[3] = tested on: carrageenin edema; experiment: Inhibitory activity on carrageenin edema; format: in vivo, Wistar male rats; details: rat, paw swelling volume three hours after carrageenin; for Inhibition rate (%): dose 50 mg/kg orally
How it was run: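 Male Wistar rats (about 100 g, 5 per group) dosed orally at 200, 100, 50 or 25 mg/kg as 2% Tween 80 suspension or aqueous salt solution, 1 h before subplantar injection of 0.1 ml 1% λ-carrageenin. Paw swelling measured at 3 h; % inhibition versus control group mean swelling.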

[4] = Acute toxicity, intravenous injection (LD50); format: in vivo; details: mouse, in vivo, iv, ddy male mice, sodium salt, mortality over one week
Description: Administration route: Intravenous injection
Using ddy male mice (body weight: 25 - 30 g), each test group consisted of 5 mice. A test compound was dissolved in the form of a sodium salt in a physiological saline or in a 5% glucose aqueous solution, and intravenously injected in an amount of 0.1 ml/10 g body weight. After the injection, the mortality rate was obtained over one week, and the median lethal dose LD50 (mg/kg) was determined.

[5] = tested on: experimental acute pancreatitis model; experiment: Effects against acute pancreatitis (Test Example 8, closed duodenal loop method, lesion scores); format: in vivo, Crj-CD male rats; details: sodium salt, 6 hours after ventrotomy; for inhibition in vivo at 10 mg/kg: Rattus norvegicus, 10 mg/kg single intravenous injection
How it was run: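 Closed duodenal loop pancreatitis in male Crj-CD rats (n=3) under halothane/nitrous oxide; sodium-salt compounds given i.v. into tail vein by continuous infusion or bolus, controls untreated. At 6 h, four pancreatic lesions scored 0-3; inhibition % of total and hemorrhagic scores calculated versus control.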

[6] = tested on: increased vascular permeability induced by acetic acid; experiment: Inhibitory activity on increased vascular permeability induced by acetic acid (Mouse Whittle method, method C); format: in vivo, ddy male mice; details: dose 20 mg/kg orally, amount of leaked dye
Description: Using ddy male mice, each test group consisted of 4 or 5 mice. A test compound was mixed with Tween 80 [polyoxyethylenesorbitan monooleate (manufactured by Nacalai Tesque K.K.)], and distilled water was added thereto to obtain a 2% Tween 80 suspension, or it was dissolved in the form of a salt in water to obtain an aqueous solution. A test compound was orally administered, and upon expiration of one hour from the administration, 0.7% acetic acid was intraperitonially injected to each mouse in an amount of 0.1 ml/10 g, and at the same time, 2% brilliant blue was intravenously injected into the tail vein in an amount of 0.1 ml/20 g. Thirty minutes after the injection of brilliant blue, the cervical vertebrae were dislocated under anesthesia by chloroform, and the abdorminal cavity was washed with 5 ml of a physiological saline. The washing solution was subjected to centrifugal separation at 3,000 rpm for 10 minutes, and the amount of the dye in the supernatant was measured at 600 nm absorbance by Microplate ELISA Reader (Model 2550EIA Reader, manufactured by Bio-Rad Laboratories). The inhibition rate of the amount of leaked dye in the group in which a test compound was administered relative to the control group was obtained by the following formula. Inhibition rate (%) = (l -(C)/(D)) x 100 [formula] • C: Amount of leaked dye in the group to which a test compound was administered. • D: Amount of leaked dye in the control group.

[7] = target: T1, Porcine pancreatic phospholipase A2; experiment: Phospholipase A2 inhibitory activity, method A (egg yolk lecithin substrate); format: biochemical; details: 1,000 ppm, 37°C for 30 minutes, read-out: % inhibition of PLA2 (1,000 ppm)
How it was run: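 Egg yolk lecithin dispersed with glycerine, Triton X-100 and CaCl2 in 50 mM Tris-HCl pH7.5 was hydrolysed by enzyme (20 ng/ml solution) with compound, 37°C, 30 min. Released free fatty acid measured by ACS-ACOD method at 540 nm; apparent enzyme level read from a standard curve to give percent inhibition.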

[8] = tested on: experimental acute pancreatitis model; experiment: Effects against acute pancreatitis (Test Example 7, closed duodenal loop method, gross pathological examination); format: in vivo, Crj-CD male rats; parameters: key to Pancreatic edema Distribution: -: No significant lesions; ± ∼ +++: Focal-diffuse; ± ∼ +++: Focal-diffuse; ± ∼ +++: Focal-diffuse; ± ∼ +++: Focal-diffuse; key to Pancreatic hemorrhage Petechia Grade / Pancreatic edema Grade: -: No significant lesions; ±: Minimal; +: Light; ++: Moderate; +++: Marked; details: 50 mg per kg continuous intravenous injection, examination 6 hours after ventrotomy, individual rats
Description: (§1) Using Crj-CD male rats (for Compound No. 19, rats having a body weight of from 371 to 484 g were used, and for Compound No. 10, rats having a body weight of from 444 to 574 g were used), each test group consisted of 3 rats. An experimental acute pancreatitis model was prepared by a closed duodenal loop method under anesthesia with halothane (manufactured by Hoechst Japan) and nitrous oxide (manufactured by Sumitomo Seika K.K.) applied by means of a general inhalation anesthesia machine (Model EM-2 and halothane evaporator F-Model). Then, Compound No. 19 or Compound No. 10 was continuously intravenously injected into the tail vein in an amount of 50 mg per kg or 40 mg per kg, respectively, at a rate of 0.05 ml per minute by means of a pump (Technicon AA II Proportioning Pump III, manufactured by Technicon Instruments Corporation). No injection was made to a control group. Gross pathological examination was conducted upon expiration of 6 hours after the ventrotomy in the case of the test group to which Compound No. 19 was administered, or upon expiration of 3 hours after the ventrotomy in the case of the test group to which Compound No. 10 was administered. As a result, as shown in the following Table 12, the groups to which the compounds of the present invention were administered, show distinct usefulness for treating acute pancreatitis.

[9] = tested on: experimental acute pancreatitis model; experiment: as above; format: in vivo, Crj-CD male rats; parameters: key: -: No significant lesions; ±: Minimal; +: Light; ++: Moderate; +++: Marked; details: 50 mg per kg continuous intravenous injection, examination 6 hours after ventrotomy, individual rats
Description: as §1

[10] = read-out: Inhibition rate of hemorrhagic lesions (%)
[11] = read-out: Inhibition rate of pancreatitis lesions (%)

inhibition at 1000 ppm [1] [%]	SMILES	Inhibition rate (%) ([2]; dose 25 mg/kg orally)	Inhibition rate (%) [3] [%]	LD50 at 168 h [4] [mg/kg]	inhibition in vivo at 10 mg/kg [5, 10] [%]	inhibition in vivo at 10 mg/kg [5, 11] [%]	Inhibition rate (%) ([2]; dose 50 mg/kg orally)	also measured
73	CS(=O)(=O)Nc1ncc(C(F)(F)F)cc1NC(=O)C=Cc1cccs1 [compound 72]	66			62	32		inhibition in vivo at 25 mg/kg ([3]; po, 3 h, dose 25 mg/kg orally, read-out: Inhibition rate (%)): 21%
38	CS(=O)(=O)Nc1ncc(C(F)(F)F)cc1NC(=O)c1ccncc1 [compound 82]	38	19					
	CS(=O)(=O)Nc1ncc(C(F)(F)F)cc1NC(=O)c1cccs1 [compound 120]		27	83			35	Inhibition rate (%) [6]: 43%; Inhibition rate of hemorrhagic lesions (%) ([5]; 24 mg/kg continuous intravenous injection): 100%
	CCS(=O)(=O)Nc1ncc(C(F)(F)F)cc1NC(=O)c1ccco1 [compound 101]		24				41	Inhibition rate (%) [6]: 46%
35	CN(C)S(=O)(=O)Nc1ncc(C(F)(F)F)cc1NC(=O)c1cccc(F)c1 [compound 113]		26		41	36	67	

SMILES	inhibition at 1000 ppm [1] [%]	Inhibition rate (%) ([2]; dose 25 mg/kg orally)	Inhibition rate (%) [3] [%]	LD50 at 168 h [4] [mg/kg]	inhibition in vivo at 10 mg/kg [5, 10] [%]	inhibition in vivo at 10 mg/kg [5, 11] [%]	Inhibition rate (%) ([2]; dose 50 mg/kg orally)	also measured
CS(=O)(=O)Nc1ncc(C(F)(F)F)cc1NC(=O)c1cccc(C(F)(F)F)c1 [compound 80]	73	33	29	> 80	11	8		
CCS(=O)(=O)Nc1ncc(C(F)(F)F)cc1NC(=O)C(F)(F)C(F)(F)F [Compound No. 19, N-(2-ethylsulfonylamino-5-trifluoromethyl-3-pyridyl)pentafluoropropionamide]	75			50 to 100				inhibition at 1000 ppm [7]: > 90%; inhibition in vivo at 100 mg/kg ([3]; po, 3 h, dose 100 mg/kg orally, read-out: Inhibition rate (%)): 31%; Pancreatic edema Distribution [8]: + (2×) and ††; Pancreatic edema Grade [8]: + (2×) and ††; Pancreatic hemorrhage Petechia Grade [8]: -; Pancreatic hemorrhage Petechia Distribution [9]: -

Reference: patent publication EP0465913B1, “Diaminotrifluoromethylpyrimidine derivatives, process for their production and phospholipase A2 inhibitor containing them” (ISHIHARA SANGYO KAISHA, LTD., priority 1990, dated 1992)
